The subject of assay [1] is Lassa GP-pseudotyped-virus. The experiment in a line: microbe, parasite or virus in culture. Format: cell-based, Lassa fever virus. As to conditions: Human immunodeficiency virus 1, read-out: Activity (EC50 in μM vs. pseudotyped virus) Lassa.
Assay [2] has as its system Machupo pseudotyped virus. Put plainly: organism not typed. The assay is classed as cell-based.
Assay [3] relates to Junín pseudotyped virus. Put plainly: organism not typed. The assay is classed as cell-based. The note with it: read-out: Activity (EC50 in μM vs. pseudotyped virus) Junín.
Assay [4] deals with VSVg pseudotyped virus. The experiment in a line: organism not typed. The assay is classed as cell-based.
The mark [5] stands for this setting: read-out: Activity (EC50 in μM vs. pseudotyped virus) Machupo.
The mark [6] stands for this setting: read-out: Activity (EC50 in μM vs. pseudotyped virus) VSVg.

By EC50 is commonly meant the concentration needed to bring the measured effect to its halfway point.

Counter-ions that a name gives are not always drawn. Like-named read-outs stand apart in the source and are kept apart here.

As for `CCc1ccc(/C=C/c2ccc3c(c2)ncn3-c2ccc(OC(C)C)cc2)cc1` [Compound 8, 5-[(E)-2-(4-ethylphenyl)vinyl]-1-(4-isopropoxyphenyl)-benzimidazole], the EC50 in assay [1] was less than 1 µM; in assay [2] (setting [5]) it was less than 1 µM; in assay [3], less than 1 µM; in assay [4] (setting [6]) it was 10 to 50 µM.
`CCOc1ccc(-n2cnc3cc(/C=C/c4ccc(OC(F)(F)F)cc4)ccc32)cc1` [Compound 10, 1-(4-ethoxyphenyl)-5-[(E)-2-[4-(trifluoromethoxy)phenyl]vinyl]benzimidazole]: the EC50 in assay [1] is less than 1 µM; in assay [2] (setting [5]) it was 1 to 10 µM; in assay [3], less than 1 µM; in assay [4] (setting [6]) it was more than 50 µM.
As for `CCOc1ccc(-n2cnc3cc(/C=C\c4ccc(OC(F)(F)F)cc4)ccc32)cc1` [Compound 11, 1-(4-ethoxyphenyl)-5-[(Z)-2-[4-(trifluoromethoxy)phenyl]vinyl]benzimidazole], the concentration for a half-maximal effect (EC50) in assay [1] was less than 1 µM; in assay [2] (setting [5]) it was less than 1 µM; in assay [3] it was less than 1 µM; in assay [4] (setting [6]), 10 to 50 µM.
On to `CCOc1ccc(-n2cnc3cc(/C=C/c4ccc(C(F)(F)F)cc4)ccc32)cc1` [Compound 12, 1-(4-ethoxyphenyl)-5-[(E)-2-[4-(trifluoromethyl)phenyl]vinyl]benzimidazole], for which the EC50 in assay [1] was 10 to 50 µM; in assay [2] (read-out: EC50 (Note 1, Machupo)), 51 µM; in assay [3] it was 10 to 50 µM; in assay [4] (read-out: EC50 (Note 2, VSVg)) it was 196 µM.
Turning to `CCOc1ccc(-n2cnc3cc(/C=C\c4ccc(C(F)(F)F)cc4)ccc32)cc1` [Compound 13], the EC50 is less than 1 µM in assay [1], less than 1 µM in assay [2] (setting [5]), less than 1 µM in assay [3] and 10 to 50 µM in assay [4] (setting [6]).
With `CCOc1ccc(-n2cnc3cc(/C=C/c4ccc(CC)cc4)ccc32)nc1` [Compound 18, 1-(5-ethoxy-2-pyridyl)-5-[(E)-2-(4-ethylphenyl)vinyl]benzimidazole hydrochloride], the EC50 in assay [1] was less than 1 µM; in assay [3], 1 to 10 µM; in assay [4] (setting [6]) it was 10 to 50 µM.
For the compound `CCOc1ccc(-n2cnc3cc(/C=C\c4ccc(CC)cc4)cnc32)cc1` [Compound 22, 3-(4-ethoxyphenyl)-6-[(Z)-2-(4-ethylphenyl)vinyl]imidazo[4,5-b]pyridine], the EC50 was less than 1 µM in assay [1], less than 1 µM in assay [2] (setting [5]), less than 1 µM in assay [3] and 10 to 50 µM in assay [4] (setting [6]).
On to `CCOc1ccc(-n2cnc3cc(C#Cc4ccc(CC)cc4)cnc32)cc1` [Compound 26, 3-(4-ethoxyphenyl)-6-[2-(4-ethylphenyl)-ethynyl]imidazo[4,5-b]pyridine], for which the EC50 in assay [1] was in the range of 1 to 10 µM; in assay [2] (setting [5]), 10 to 50 µM; in assay [3], 1 to 10 µM; in assay [4] (setting [6]), 10 to 50 µM.
As for `CCOc1ccc(-n2cnc3cc(CCc4ccc(CC)cc4)cnc32)cc1` [Compound 28, 3-(4-ethoxyphenyl)-6-[2-(4-ethylphenyl)-ethyl]imidazo[4,5-b]pyridine], the half-maximal effective concentration (EC50) in assay [1] was less than 1 µM; in assay [2] (setting [5]), less than 1 µM; in assay [3], less than 1 µM; in assay [4] (setting [6]) it was more than 50 µM.
For `CCOc1ccc(-n2cnc3cc(OCc4ccc(CC)cc4)ccc32)cc1` [Compound 29, 1-(4-ethoxyphenyl)-5-[(4-ethylphenyl)-methoxy]benzimidazole], the EC50 in assay [1] was less than 1 µM; in assay [2] (setting [5]), less than 1 µM; in assay [3] it was less than 1 µM; in assay [4] (setting [6]) it was 10 to 50 µM.
With `COc1ccc(-n2cnc3cc(OCc4ccc(C(C)C)cc4)ccc32)cc1` [Compound 30, 5-[(4-isopropylphenyl)methoxy]-1-(4-methoxyphenyl)benzimidazole], the EC50 in assay [1] is less than 1 µM; in assay [2] (setting [5]) it was less than 1 µM; in assay [3], less than 1 µM; in assay [4] (setting [6]) it was 10 to 50 µM.
In the case of `CCOc1ccc(-n2cnc3cc(CNc4ccc(CC)cc4)ccc32)cc1` [Compound 34, N-[[1-(4-ethoxyphenyl)benzimidazol-5-yl]methyl]-4-ethyl-aniline], the EC50 in assay [1] was less than 1 µM; in assay [2] (setting [5]) it was less than 1 µM; in assay [3] it was less than 1 µM; in assay [4] (setting [6]) it was 10 to 50 µM.
For `CC(C)Oc1ccc(-n2cnc3cc(C4CC4c4ccc(C(C)(C)C)cc4)ccc32)cc1` (centres unmarked) [Compound 36, 5-[2-(4-tert-butylphenyl)cyclopropyl]-1-(4-isopropoxyphenyl)-benzimidazole], the EC50 in assay [1] was less than 1 µM; in assay [2] (setting [5]), less than 1 µM; in assay [3], less than 1 µM; in assay [4] (setting [6]), 10 to 50 µM.
With `COC(=O)c1ccc(/C=C\c2ccc3c(c2)ncn3-c2ccc(OC(C)C)cc2)cc1` [Compound 37, methyl 4-[(Z)-2-[1-(4-isopropoxyphenyl)-benzimidazol-5-yl]vinyl]benzoate], the EC50 is less than 1 µM in assay [1], less than 1 µM in assay [2] (setting [5]), less than 1 µM in assay [3] and 10 to 50 µM in assay [4] (setting [6]).
On to `CC(C)Oc1ccc(-n2cnc3cc(/C=C\c4ccc(C(C)(C)O)cc4)ccc32)cc1` [Compound 38, 2-[4-[(Z)-2-[1-(4-isopropoxyphenyl)benzimidazol-5-yl]vinyl]phenyl]-propan-2-ol], for which the EC50 in assay [1] was less than 1 µM; in assay [2] (setting [5]) it was less than 1 µM; in assay [3] it was less than 1 µM; in assay [4] (setting [6]), 1 to 10 µM.
Turning to `CC(C)Oc1ccc(-n2cnc3cc(/C=C\c4ccc(C(C)(C)F)cc4)ccc32)cc1` [Compound 39, 5-[(Z)-2-[4-(1-fluoro-1-methyl-ethyl)phenyl]vinyl]-1-(4-isopropoxy-phenyl)benzimidazole], the EC50 in assay [1] was less than 1 µM; in assay [2] (setting [5]), less than 1 µM; in assay [3] it was less than 1 µM; in assay [4] (setting [6]), 1 to 10 µM.
Consider `C=C(C)c1ccc(/C=C\c2ccc3c(c2)ncn3-c2ccc(OC(C)C)cc2)cc1` [Compound 40, 5-[(Z)-2-(4-isopropenylphenyl)-vinyl]-1-(4-isopropoxyphenyl)-benzimidazole], for which the EC50 in assay [1] is less than 1 µM; in assay [2] (setting [5]), less than 1 µM; in assay [3], less than 1 µM; in assay [4] (setting [6]) it was 10 to 50 µM.
With `CC(C)Oc1ccc(-n2cnc3cc(/C=C\c4ccc(C5(O)CC5)cc4)ccc32)cc1` [Compound 48, 1-[4-[(Z)-2-[1-(4-isopropoxyphenyl)benzimidazol-5-yl]vinyl]phenyl]cyclopropanol], the EC50 in assay [1] was less than 1 µM; in assay [2] (setting [5]) it was less than 1 µM; in assay [3] it was less than 1 µM; in assay [4] (setting [6]), 10 to 50 µM.
In the case of `CCC(C)(O)c1ccc(/C=C\c2ccc3c(c2)ncn3-c2ccc(OC(C)C)cc2)cc1` (centres unmarked) [Compound 50, 2-[4-[(Z)-2-[1-(4-isopropoxyphenyl)benzimidazol-5-yl]vinyl]phenyl]butan-2-ol], the EC50 was less than 1 µM in assay [1], less than 1 µM in assay [2] (setting [5]), less than 1 µM in assay [3] and 1 to 10 µM in assay [4] (setting [6]).
For the compound `CC(C)Oc1ccc(-n2cnc3cc(/C=C\c4ccc(C(C)O)cc4)ccc32)cc1` (centres unmarked) [Compound 51, 1-[4-[(Z)-2-[1-(4-isopropoxyphenyl)benzimidazol-5-yl]vinyl]phenyl]ethanol], the EC50 in assay [1] was less than 1 µM; in assay [2] (setting [5]) it was less than 1 µM; in assay [3], less than 1 µM; in assay [4] (setting [6]), 1 to 10 µM.
As for `CC(C)Oc1ccc(-n2cnc3cc(/C=C\c4ccc(C5(O)CCC5)cc4)ccc32)cc1` [Compound 52, 1-[4-[(Z)-2-[1-(4-isopropoxyphenyl)benzimidazol-5-yl]vinyl]phenyl]cyclobutanol], the 50% effective concentration (EC50) in assay [1] is less than 1 µM; in assay [2] (setting [5]), less than 1 µM; in assay [3], less than 1 µM; in assay [4] (setting [6]), 1 to 10 µM.
With `CC(C)Oc1ccc(-n2cnc3cc(/C=C\c4ccc(C5(O)COC5)cc4)ccc32)cc1` [Compound 53, 3-[4-[(Z)-2-[1-(4-isopropoxyphenyl)benzimidazol-5-yl]vinyl]phenyl]oxetan-3-ol], the EC50 in assay [1] is less than 1 µM; in assay [2] (setting [5]), less than 1 µM; in assay [3], less than 1 µM; in assay [4] (setting [6]) it was 1 to 10 µM.
For the compound `CC(C)Oc1ccc(-n2cnc3cc(/C=C\c4ccc(C5(N)CC5)cc4)ccc32)cc1` [Compound 54, 1-[4-[(Z)-2-[1-(4-isopropoxyphenyl)benzimidazol-5-yl]vinyl]phenyl]cyclopropanamine], the EC50 in assay [1] was less than 1 µM; in assay [2] (setting [5]), less than 1 µM; in assay [3], less than 1 µM; in assay [4] (setting [6]) it was 10 to 50 µM.
Turning to `CC(C)Oc1ccc(-n2cnc3cc(/C=C\c4ccc(C5(O)CNC5)cc4)ccc32)cc1` [Compound 58, 3-[4-[(Z)-2-[1-(4-isopropoxyphenyl)benzimidazol-5-yl]vinyl]phenyl]azetidin-3-ol], the EC50 in assay [1] was 1 to 10 µM; in assay [2] (setting [5]) it was less than 1 µM; in assay [3], less than 1 µM; in assay [4] (setting [6]), 10 to 50 µM.
On to `CC(C)Oc1ccc(-n2cnc3cc(/C=C\c4ccc(C5(O)CCOCC5)cc4)ccc32)cc1` [Compound 59, 4-[4-[(Z)-2-[1-(4-isopropoxyphenyl)benzimidazol-5-yl]vinyl]phenyl]tetrahydropyran-4-ol], for which the EC50 in assay [1] is less than 1 µM; in assay [2] (setting [5]), less than 1 µM; in assay [3], less than 1 µM; in assay [4] (setting [6]), 1 to 10 µM.
As for `CC(C)Oc1ccc(-n2cnc3cc(/C=C\c4ccc(C(C)(C)N)cc4)ccc32)cc1` [Compound 60, 2-[4-[(Z)-2-[1-(4-isopropoxyphenyl)benzimidazol-5-yl]vinyl]phenyl]propan-2-amine], the EC50 in assay [1] is less than 1 µM; in assay [2] (setting [5]) it was less than 1 µM; in assay [3] it was less than 1 µM; in assay [4] (setting [6]), more than 50 µM.
As to `CCOc1ccc(-c2c[nH]c3cc(NCc4ccc(CC)cc4)ccc23)cc1` [Compound 64, 3-(4-ethoxyphenyl)-N-[(4-ethylphenyl)-methyl]-1H-indol-6-amine], the EC50 is less than 1 µM in assay [1], less than 1 µM in assay [2] (setting [5]), less than 1 µM in assay [3] and 10 to 50 µM in assay [4] (setting [6]).

Source of the values: patent US10000486B2 (priority 2012, dated 2018).
